Measured values reported in patent publication US12441768B2, “Compositions and methods for treating endometriosis” (EndoMet Biosciences, Inc., priority 2018, dated 2025).
Where a SMILES comes first, the peptide text is derived from it.

Assays:
β-catenin = target: T1, β-catenin (Homo sapiens, UniProt P35222); assay: KD50 measurement using competitive fluorescence polarization (FP) with labelled TCF4; assay type: binding; conditions: fluorescence polarization, β-catenin; for Kd: read-out: β-Cat FP KD
T1 sequence (P35222 1-781): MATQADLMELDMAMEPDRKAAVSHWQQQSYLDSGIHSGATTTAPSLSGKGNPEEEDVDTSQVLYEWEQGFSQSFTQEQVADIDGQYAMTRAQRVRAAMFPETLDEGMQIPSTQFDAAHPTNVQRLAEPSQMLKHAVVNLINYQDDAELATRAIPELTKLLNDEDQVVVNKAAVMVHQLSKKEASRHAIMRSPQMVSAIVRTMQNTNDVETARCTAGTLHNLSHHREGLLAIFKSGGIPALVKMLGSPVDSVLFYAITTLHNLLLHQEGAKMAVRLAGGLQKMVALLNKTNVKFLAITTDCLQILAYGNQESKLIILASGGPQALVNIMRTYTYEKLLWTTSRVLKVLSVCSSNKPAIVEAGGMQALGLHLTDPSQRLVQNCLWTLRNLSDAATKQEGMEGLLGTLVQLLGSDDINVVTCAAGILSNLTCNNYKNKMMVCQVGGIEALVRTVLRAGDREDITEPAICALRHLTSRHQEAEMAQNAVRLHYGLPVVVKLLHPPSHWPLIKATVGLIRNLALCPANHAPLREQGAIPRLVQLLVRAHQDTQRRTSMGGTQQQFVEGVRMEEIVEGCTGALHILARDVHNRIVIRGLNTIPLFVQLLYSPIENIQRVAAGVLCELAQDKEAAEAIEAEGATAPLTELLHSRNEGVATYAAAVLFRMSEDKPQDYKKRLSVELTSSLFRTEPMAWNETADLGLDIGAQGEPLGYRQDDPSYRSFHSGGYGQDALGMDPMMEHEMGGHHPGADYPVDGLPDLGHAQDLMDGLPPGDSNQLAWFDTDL
Method in brief: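 Each compound competes against labelled TCF4 (5 nM) for 100 nM β-catenin at room temperature, tested over 10 nM to 30 uM. Signal: polarization at 470/520 nm excitation/emission. Three repeat experiments were performed.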

[1] = % Viability non-Wnt responsive cells
[2] = target: Wnt-responsive promoter (TCF/LEF); assay: Wnt-dependent luciferase reporter assay; assay type: cell-based, murine
Method in brief: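 Murine 3T3 fibroblasts carrying a TCF/LEF-driven luciferase reporter, stimulated with Wnt3a in the presence of increasing peptide concentrations or vehicle. Luminescence inhibition gave EC50 values in uM.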

SMILES	β-Cat FP Hill slope (β-catenin)	Kd (β-catenin)	viability [1]	EC50 [2]
CCCC[C@H](N)C(=O)N[C@@H](Cc1c[nH]c2ccccc12)C(=O)N[C@@H](Cc1ccccc1)C(=O)N[C@@H](CC(C)C)C(=O)N[C@H](C(=O)N[C@@H](CS)C(=O)N[C@@H](Cc1ccccc1)C(=O)N[C@@H](Cc1c[nH]c2ccccc12)C(=O)NCC(=O)O)[C@@H](C)CC [compound 164] (HELM PEPTIDE1{[Nle].W.F.L.I.C.F.W.G}$$$$V2.0)	0.7	0.4 to 1 µM	100%	< 7.5 µM
CC[C@H](C)[C@H](NC(=O)[C@H](CC(C)C)NC(=O)[C@@H](NC(=O)[C@H](Cc1c[nH]c2ccccc12)NC(=O)[C@H](CCSC)NC(C)=O)[C@@H](C)CC)C(=O)N[C@@H](CO)C(=O)N[C@@H](Cc1ccccc1)C(=O)N[C@@H](Cc1c[nH]c2ccccc12)C(=O)NCC(=O)O [compound 165] (Ac-MWILISFWG-OH)	2.99	< 0.4 µM	102%	< 7.5 µM
CC[C@H](C)[C@H](NC(=O)[C@H](CC(C)C)NC(=O)[C@H](Cc1ccccc1)NC(=O)[C@H](Cc1c[nH]c2ccccc12)NC(=O)[C@H](CCSC)NC(=O)[C@H](CCCNC(=N)N)NC(=O)[C@@H](NC(=O)[C@@H](N)CCSC)[C@@H](C)CC)C(=O)N[C@@H](CS)C(=O)N[C@@H](C)C(=O)N[C@@H](Cc1c[nH]c2ccccc12)C(=O)NCC(=O)O [compound 166] (H-MIRMWFLICAWG-OH)	–	> 30 µM	100%	> 30 µM
CC[C@H](C)[C@@H]1NC(=O)[C@H](CC(C)C)NC(=O)[C@H](Cc2ccccc2)NC(=O)[C@H](Cc2c[nH]c3ccccc23)NC(=O)[C@H](CCSC)NC(=O)[C@@H](N)CCCCNC(=O)C[C@@H](C(=O)O)NC(=O)[C@H](Cc2c[nH]c3ccccc23)NC(=O)[C@H](C)NC(=O)[C@H](CS)NC1=O [compound 167] (HELM PEPTIDE1{K.M.W.F.L.I.C.A.W.D}$PEPTIDE1,PEPTIDE1,1:R3-10:R3$$$V2.0)	0.7	1 to 10 µM	98.8%	7.5 to 15 µM
CC[C@H](C)[C@@H]1NC(=O)[C@H](CC(C)C)NC(=O)[C@H](Cc2ccccc2)NC(=O)[C@H](Cc2c[nH]c3ccccc23)NC(=O)[C@@H](N)CCCCNC(=O)C[C@@H](C(=O)O)NC(=O)[C@H](Cc2c[nH]c3ccccc23)NC(=O)[C@H](C)NC(=O)[C@H](CS)NC1=O [compound 168] (HELM PEPTIDE1{K.W.F.L.I.C.A.W.D}$PEPTIDE1,PEPTIDE1,1:R3-9:R3$$$V2.0)	0.7	1 to 10 µM	99.1%	< 7.5 µM
CC[C@H](C)[C@@H]1NC(=O)[C@H](CC(C)C)NC(=O)[C@H](Cc2ccccc2)NC(=O)[C@H](Cc2c[nH]c3ccccc23)NC(=O)[C@@H](NC(C)=O)CCCCNC(=O)C[C@@H](C(=O)O)NC(=O)[C@H](Cc2c[nH]c3ccccc23)NC(=O)[C@H](C)NC(=O)[C@H](CS)NC1=O [compound 169] (HELM PEPTIDE1{[ac].K.W.F.L.I.C.A.W.D}$PEPTIDE1,PEPTIDE1,2:R3-10:R3$$$V2.0)	0.7	1 to 10 µM	93.5%	< 7.5 µM
CC[C@H](C)[C@@H]1NC(=O)[C@H](CC(C)C)NC(=O)[C@H](Cc2ccccc2)NC(=O)[C@H](Cc2c[nH]c3ccccc23)NC(=O)[C@H](CCSC)NC(=O)[C@@H](N)CCCCNC(=O)C[C@@H](C(=O)O)NC(=O)[C@H](Cc2c[nH]c3ccccc23)NC(=O)[C@H](Cc2ccccc2)NC(=O)[C@H](CS)NC1=O [compound 170] (HELM PEPTIDE1{K.M.W.F.L.I.C.F.W.D}$PEPTIDE1,PEPTIDE1,1:R3-10:R3$$$V2.0)	0.7	1 to 10 µM	107%	15 to 22.5 µM
CC[C@H](C)[C@@H]1NC(=O)[C@H](CC(C)C)NC(=O)[C@H](Cc2ccccc2)NC(=O)[C@H](Cc2c[nH]c3ccccc23)NC(=O)[C@H](CCSC)NC(=O)[C@@H](N)CCCCNC(=O)C[C@@H](C(=O)O)NC(=O)[C@H](Cc2c[nH]c3ccccc23)NC(=O)[C@H](Cc2ccccc2)NC(=O)[C@H](CO)NC1=O [compound 171] (HELM PEPTIDE1{K.M.W.F.L.I.S.F.W.D}$PEPTIDE1,PEPTIDE1,1:R3-10:R3$$$V2.0)	0.7	1 to 10 µM	79.6%	< 7.5 µM
CC[C@H](C)[C@@H]1NC(=O)[C@H](CC(C)C)NC(=O)[C@H](Cc2ccccc2)NC(=O)[C@H](Cc2c[nH]c3ccccc23)NC(=O)[C@@H](N)CCCCNC(=O)C[C@@H](C(=O)O)NC(=O)[C@H](Cc2c[nH]c3ccccc23)NC(=O)[C@H](Cc2ccccc2)NC(=O)[C@H](CS)NC1=O [compound 172] (HELM PEPTIDE1{K.W.F.L.I.C.F.W.D}$PEPTIDE1,PEPTIDE1,1:R3-9:R3$$$V2.0)	0.7	1 to 10 µM	90.8%	< 7.5 µM
CC[C@H](C)[C@@H]1NC(=O)[C@H](CC(C)C)NC(=O)[C@H](Cc2ccccc2)NC(=O)[C@H](Cc2c[nH]c3ccccc23)NC(=O)[C@@H](N)CCCCNC(=O)CC[C@@H](C(=O)N[C@@H](Cc2c[nH]c3ccccc23)C(=O)NCC(=O)O)NC(=O)[C@H](CS)NC1=O [compound 173] (HELM PEPTIDE1{K.W.F.L.I.C.E.W.G}$PEPTIDE1,PEPTIDE1,1:R3-7:R3$$$V2.0)	0.7	–	107%	> 30 µM
CC[C@H](C)[C@@H]1NC(=O)[C@H](CC(C)C)NC(=O)[C@H](Cc2ccccc2)NC(=O)[C@H](Cc2c[nH]c3ccccc23)NC(=O)[C@@H](N)CCCCNC(=O)CNC(=O)CC[C@@H](C(=O)NCC(=O)O)NC(=O)[C@H](Cc2c[nH]c3ccccc23)NC(=O)[C@H](Cc2ccccc2)NC(=O)[C@H](CS)NC1=O [compound 174] (HELM PEPTIDE1{K.W.F.L.I.C.F.W.E.G}|CHEM1{[O=C(CN[*:2])[*:1]]}$PEPTIDE1,CHEM1,1:R3-1:R1|PEPTIDE1,CHEM1,9:R3-1:R2$$$V2.0)	0.7	1 to 10 µM	102%	7.5 to 15 µM
CC[C@H](C)[C@@H]1NC(=O)[C@H](CC(C)C)NC(=O)[C@H](Cc2ccccc2)NC(=O)[C@H](Cc2c[nH]c3ccccc23)NC(=O)[C@@H](NC(C)=O)CC(=O)NCCCC[C@@H](C(=O)NCC(=O)O)NC(=O)[C@H](Cc2c[nH]c3ccccc23)NC(=O)[C@H](Cc2ccccc2)NC(=O)[C@H](CS)NC1=O [compound 175] (HELM PEPTIDE1{[ac].D.W.F.L.I.C.F.W.K.G}$PEPTIDE1,PEPTIDE1,2:R3-10:R3$$$V2.0)	0.7	10 to 30 µM	100%	7.5 to 15 µM
CC[C@H](C)[C@@H]1NC(=O)[C@H](CC(C)C)NC(=O)[C@H](Cc2ccccc2)NC(=O)[C@H](Cc2c[nH]c3ccccc23)NC(=O)[C@@H](N)CC(=O)NCCCC[C@@H](C(=O)NCC(=O)O)NC(=O)[C@H](Cc2c[nH]c3ccccc23)NC(=O)[C@H](Cc2ccccc2)NC(=O)[C@H](CS)NC1=O [compound 176] (HELM PEPTIDE1{D.W.F.L.I.C.F.W.K.G}$PEPTIDE1,PEPTIDE1,1:R3-9:R3$$$V2.0)	0.85	10 to 30 µM	109%	7.5 to 15 µM
CC[C@H](C)[C@@H]1NC(=O)[C@H](CC(C)C)NC(=O)[C@H](Cc2ccccc2)NC(=O)[C@H](Cc2c[nH]c3ccccc23)NC(=O)[C@H](CCSC)NC(=O)[C@@H](N)CC(=O)NCCCC[C@@H](C(=O)NCC(=O)O)NC(=O)[C@H](Cc2c[nH]c3ccccc23)NC(=O)[C@H](Cc2ccccc2)NC(=O)[C@H](CS)NC1=O [compound 177] (HELM PEPTIDE1{D.M.W.F.L.I.C.F.W.K.G}$PEPTIDE1,PEPTIDE1,1:R3-10:R3$$$V2.0)	–	> 30 µM	98.6%	7.5 to 15 µM
CC[C@H](C)[C@@H]1NC(=O)[C@H](CC(C)C)NC(=O)[C@H](Cc2ccccc2)NC(=O)[C@H](Cc2c[nH]c3ccccc23)NC(=O)[C@@H](N)CC(=O)NCCCC[C@@H](C(=O)NCC(=O)O)NC(=O)[C@H](Cc2c[nH]c3ccccc23)NC(=O)[C@H](C)NC(=O)[C@H](CS)NC1=O [compound 178] (HELM PEPTIDE1{D.W.F.L.I.C.A.W.K.G}$PEPTIDE1,PEPTIDE1,1:R3-9:R3$$$V2.0)	–	> 30 µM	91.8%	< 7.5 µM
CC[C@H](C)[C@@H]1NC(=O)[C@H](CC(C)C)NC(=O)[C@H](Cc2ccccc2)NC(=O)[C@H](Cc2c[nH]c3ccccc23)NC(=O)[C@@H](N)CCCCNC(=O)CC[C@@H](C(=O)O)NC(=O)[C@H](Cc2c[nH]c3ccccc23)NC(=O)[C@H](Cc2ccccc2)NC(=O)[C@H](CS)NC1=O [compound 179] (HELM PEPTIDE1{K.W.F.L.I.C.F.W.E}$PEPTIDE1,PEPTIDE1,1:R3-9:R3$$$V2.0)	1.01	1 to 10 µM	90.9%	< 7.5 µM
